Converted amounts (≈) assume the structure as drawn. Like-named read-outs stand apart in the source and are kept apart here.
Tests used:
[1] = in vitro; format: cell-based, human; settings: human, 50 µM, 24 h exposure, ATP content, 5% FBS; read-out: Cytotoxicity (%) Huh-7 cells
How it was run: (§1)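 Cytotoxicity read-out: intracellular ATP (CellTiter-Glo luminescence) in Huh-7 hepatoma cells seeded at 20000 cells/well, cultured overnight, then exposed to compounds for 24 h at 37°C in 5% FBS medium. Polymyxin B sulphate (15000 IU/mL) served as positive control.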

[2] = tested on: Huh-7 cells; assay: in vitro; format: cell-based, human; settings: 50 µM, 24 h exposure, ATP content, 5% FBS
How it was run: as §1

[3] = tested on: E. aerogenes ATCC 13048; assay: Broth microdilution assay, E. aerogenes; format: cell-based, Enterobacter aerogenes; settings: Klebsiella aerogenes, ATCC13048, 24 h, 50 µM, 24 h, inhibition of growth, mean ± SD; read-out: Inhibitory effect (%) E. aerogenes ATCC 13048
How it was run: (§2)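 Broth microdilution per CLSI/EUCAST in Mueller Hinton II broth, 5×10^5 cfu/mL, 24 h at 37°C with agitation; growth by absorbance at 620 nm versus controls. Compounds first screened at 50 µM.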

[4] = tested on: E. coli ATCC 25922; assay: Broth microdilution assay, E. coli; format: cell-based, Escherichia coli; settings: Escherichia coli, ATCC25922, 24 h; read-out: Inhibitory effect (%) E. coli ATCC 25922
How it was run: as §2

[5] = tested on: C. albicans; settings: cited from earlier work
[6] = tested on: P. aeruginosa ATCC 27853; assay: Broth microdilution assay, P. aeruginosa; format: cell-based, Pseudomonas aeruginosa; settings: Pseudomonas aeruginosa, ATCC27853, 24 h; read-out: Inhibitory effect (%) P. aeruginosa ATCC 27853
How it was run: as §2

[7] = tested on: E. coli; set-up: method as in earlier work; settings: ref 32; cited from earlier work
[8] = tested on: C. albicans ATCC 90028; assay: Broth microdilution assay, C. albicans; format: cell-based, Candida albicans
How it was run: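 Candida albicans ATCC 90028 was grown on Sabouraud Dextrose Agar at 27°C for 16–18 h, then suspended in sterile 0.9% saline. Broth microdilution in clear 96-well plates mixed equal volumes of yeast suspension and diluted sample. Plates were incubated with agitation at 35°C for 48 h. Absorbance at 620 nm was read at 0, 24 and 48 h, and growth inhibition was expressed as a percentage relative to controls.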

[9] = Storage stability of samples; format: physicochemical; settings: ambient temperature, air atmosphere, several years
From the text: Betulin 1 is a stable compound, as we have not noticed any degradation of samples even if stored at ambient temperature under air atmosphere for several years. […] Thus, instability issues cannot be seen as a major concern regarding the betulin derivatives of this study.

[10] = tested on: P. aeruginosa; set-up: method as in earlier work; settings: ref 32; cited from earlier work
[11] = tested on: S. aureus; set-up: method as in earlier work; settings: ref 32; cited from earlier work
[12] = tested on: E. faecalis ATCC 29212; assay: Broth microdilution assay, E. faecalis; format: cell-based, Enterococcus faecalis; settings: 50 µM, 24 h, inhibition of growth, mean ± SD
How it was run: as §2

[13] = tested on: S. aureus ATCC 25923; assay: Broth microdilution assay, S. aureus; format: cell-based, Staphylococcus aureus; settings: Staphylococcus aureus, ATCC25923, 24 h, 50 µM, 24 h, inhibition of growth, mean ± SD; read-out: Inhibitory effect (%) S. aureus ATCC 25923
How it was run: as §2

[14] = tested on: Streptococcus pyogenes; set-up: method as in PMID 29255382; settings: ref 11; cited from earlier work

For `C=C(C)[C@@H]1CC[C@]2(CO)CC[C@]3(C)[C@H](CC[C@@H]4[C@@]5(C)CC[C@H](O)C(C)(C)[C@@H]5CC[C@]43C)[C@@H]12` [Compound 1, lup-20(29)-ene-3β, 28-diol], the cytotoxicity at 24 h, 50 µM [1] was 14%, the “Cytotoxicity (%) Huh-7 cells” value [2] was 13.7±2.7% and the inhibition at 50 µM [3] was 5.7 ± 2.1%. The inhibition at 50 µM [4] was 1.3 ± 5.1%, the “MIC against C. albicans” value ([5]; ref 12) was 250 µg/mL (≈ 565 µM) and the “MIC against C. albicans” value ([5]; ref 41) was 180 µg/mL (≈ 407 µM). The inhibition at 50 µM [6] was -1.2 ± 2.5%, the “MIC against E. coli” value [7] was 0.25 mg/mL (≈ 565 µM) and the “Inhibitory effect (%) C. albicans ATCC 90028” value ([8]; 50 µM, 48 h at 35°C, inhibition of growth, mean ± SD) was “inactive”. For the same compound, the inhibition at 50 µM ([8]; Candida albicans, ATCC90028, 48 h, read-out: Inhibitory effect (%) C. albicans ATCC 90028) was -27.5 ± 15%, the Stability on storage [9] was “stable” and the “MIC against P. aeruginosa” value [10] was 0.25 mg/mL (≈ 565 µM). The “MIC against S. aureus” value [11] was 0.25 mg/mL (≈ 565 µM), the “Inhibitory effect (%) E. faecalis ATCC 29212” value [12] was 19.7±6.2% and the inhibition at 50 µM ([12]; Enterococcus faecalis, ATCC29212, 24 h, read-out: Inhibitory effect (%) E. faecalis ATCC 29212) was 20%. The inhibition at 50 µM [13] was -6.7 ± 6.4% and the “MIC against S. pyogenes” value [14] was 85 µg/mL (≈ 192 µM).

Source: paper PMC4102551, “Screening and Characterisation of Antimicrobial Properties of Semisynthetic Betulin Derivatives” (PLoS ONE, 2014)
